Assay results: US7192981B2, “3,4-dihydroxyhydrocinnamic acid derivative” (Bionutrigen Co., Ltd., priority 2005, dated 2007)

How the values were obtained:
[1] = system: GLUT4; test: GLUT4 translocation, subcellular fractionation and western blot; format: cell-based, rat; conditions: 500 μM, 4 h, vs untreated control adipocytes
Description: Adipocytes treated with DHH105 for 4 h or insulin for 30 min were washed three times with HES buffer [8 mM HEPES, 250 mM sucrose, 2 mM EDTA, 20 mM NaF, 50 mM NaVO4, 50 mM sodium pyrophosphate, protease inhibitor cocktail (Sigma), and phosphatase inhibitor cocktail (Sigma), pH 7.4]. Adipocytes were homogenized in 20 ml HES buffer with a potter Elvehjem teflon pestle (15 strokes). Homogenates were centrifuged at 1000 g for 10 min and the supernatant was centrifuged again at 16,000 g for 20 min. The resulting pellet was resuspended in 500 μl HES buffer, carefully laid on a discontinuous sucrose gradient (density top to bottom: 1.0592, 1.1270, 1.1533, 1.1764, 1.2575) and centrifuged at 110,000 g for 70 min. The plasma membrane fraction was obtained from the gradient density of 1.1533, diluted in 50 ml HES buffer, and centrifuged at 16,000 g for 20 min. The pellet (plasma membrane fraction) was resuspended in 500 μl HES buffer and stored at −70° C. To obtain the microsomal membrane fraction, the supernatant from the second centrifugation was centrifuged at 220,000 g for 70 min. The pellet was washed, resuspended in 500 μl HES buffer and stored at −70° C. The protein content of each fraction was measured by the Bradford method. […] The membranes were washed and the immunoreactive proteins were detected with an enhanced chemoluminescence western blot detection kit (Amersham Pharmacia Biotech).

[2] = target: T1, IR-β (Rattus norvegicus, UniProt P15127); test: Phosphorylation of IR-β in adipocytes, immunoprecipitation and western blot; format: cell-based; conditions: SD rat adipocytes, DHH105 2 h, vs untreated control
T1 construct: DHH105-treated adipocytes from SD rats; endogenous in cells; host or cells: adipocytes from SD rats
T1 sequence (P15127 764-1383 limits assumed): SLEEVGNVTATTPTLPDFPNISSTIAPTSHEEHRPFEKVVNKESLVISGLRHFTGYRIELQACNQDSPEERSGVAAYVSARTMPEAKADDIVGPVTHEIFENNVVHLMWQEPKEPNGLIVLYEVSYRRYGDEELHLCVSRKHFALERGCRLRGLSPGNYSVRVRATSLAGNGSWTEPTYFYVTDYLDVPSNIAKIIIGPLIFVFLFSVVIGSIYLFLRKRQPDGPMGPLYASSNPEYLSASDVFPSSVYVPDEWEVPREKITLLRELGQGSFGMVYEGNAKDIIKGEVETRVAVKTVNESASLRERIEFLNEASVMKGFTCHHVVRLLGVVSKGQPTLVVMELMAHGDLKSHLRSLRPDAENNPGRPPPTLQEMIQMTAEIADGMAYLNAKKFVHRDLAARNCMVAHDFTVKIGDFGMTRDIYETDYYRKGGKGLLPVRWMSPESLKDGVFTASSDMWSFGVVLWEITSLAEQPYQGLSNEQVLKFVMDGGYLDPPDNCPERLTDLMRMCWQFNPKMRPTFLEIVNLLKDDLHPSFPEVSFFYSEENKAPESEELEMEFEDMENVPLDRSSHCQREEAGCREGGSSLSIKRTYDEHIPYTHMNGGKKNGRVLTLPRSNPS
T1 sequence (P15127 27-759 limits assumed): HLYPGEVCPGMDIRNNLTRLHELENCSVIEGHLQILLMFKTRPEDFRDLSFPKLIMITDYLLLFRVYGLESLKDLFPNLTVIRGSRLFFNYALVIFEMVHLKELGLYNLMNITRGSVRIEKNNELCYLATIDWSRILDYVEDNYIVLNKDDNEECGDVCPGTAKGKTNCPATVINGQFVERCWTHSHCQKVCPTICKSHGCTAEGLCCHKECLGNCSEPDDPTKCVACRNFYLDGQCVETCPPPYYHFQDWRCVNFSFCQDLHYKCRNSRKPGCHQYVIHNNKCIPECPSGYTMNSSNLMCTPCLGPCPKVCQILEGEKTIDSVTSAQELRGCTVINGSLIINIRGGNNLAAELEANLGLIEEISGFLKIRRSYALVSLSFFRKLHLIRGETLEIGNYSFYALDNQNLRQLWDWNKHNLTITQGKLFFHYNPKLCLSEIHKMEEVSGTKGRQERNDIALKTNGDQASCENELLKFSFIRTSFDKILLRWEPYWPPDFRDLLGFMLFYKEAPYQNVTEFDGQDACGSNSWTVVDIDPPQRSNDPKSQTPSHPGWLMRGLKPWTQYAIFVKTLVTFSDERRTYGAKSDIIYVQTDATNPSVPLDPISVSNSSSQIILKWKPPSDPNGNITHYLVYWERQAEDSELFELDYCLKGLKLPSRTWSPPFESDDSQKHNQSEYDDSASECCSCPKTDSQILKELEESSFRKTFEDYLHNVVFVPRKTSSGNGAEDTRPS
Description: (§1) Adipocytes treated with DHH105 for 2 h or insulin for 10 min were homogenized in 5 ml lysis buffer (20 mM Tris, pH 7.4, 1% SDS, 10% glycerol, 150 mM NaCl, 2 mM EDTA, 20 mM NaF, 1 mM NaVO4, 2 mM sodium pyrophosphate, protease inhibitor cocktail, and phosphatase inhibitor cocktail) with a teflon pestle (15 strokes). Homogenized adipocytes were sonicated for 3 min and solubilized for 30 min. The homogenate was centrifuged at 3,000 g for 10 min at 4° C. The protein concentration of the lysate was determined by the Bradford method. After dilution (1 μg/μl protein concentration), the lysates were incubated with anti-insulin receptor-β (IR-β) antibody (Upstate Biotech, Charlottesville, Va.) or anti-IRS-1 antibody (Upstate Biotech) overnight at 4° C. Protein A Sepharose beads (100 μl, Amersham Pharmacia Biotech) were added and the mixture was gently rocked for 2 h at 4° C. […] The membranes were washed and the immunoreactive proteins were detected with an enhanced chemoluminescence western blot detection kit (Amersham Pharmacia Biotech). To examine whether DHH105 treatment increases autophosphorylation of the insulin receptor and its tyrosine kinase activity, the phosphorylation of IR-β and IRS-1 were measured by immunoprecipitation and western blot in DHH105-treated adipocytes from SD rats. […]

[3] = system: IRS-1; test: Phosphorylation of IRS-1 in adipocytes, immunoprecipitation and western blot; format: cell-based; conditions: SD rat adipocytes, DHH105 2 h, vs untreated control
Description: as §1

amount of GLUT4 in the microsomal membrane fraction [1]: decreased
phosphorylation of IR-β [2]: increased
Structure (SMILES): O=C(CCc1ccc(O)c(O)c1)OCc1cccc2ccccc12 [DHH105, 3,4-dihydroxyhydrocinnamic acid naphthalene methyl ester]
immunoreactive GLUT4 in the plasma membrane fraction [1]: increased
phosphorylation of IRS-1 [3]: increased
